From the RepoRT retention time repository (doi:10.1016/j.jhazmat.2019.121712)

Experiment: Thermo Scientific Acclaim RSLC 120 C18, 100 × 2.1 mm, 2.2 µm, 30 °C; A: 90% water + 10% methanol + 0.01% formic acid + 5 mM ammonium formate; B: methanol + 0.01% formic acid + 5 mM ammonium formate; gradient (min/%B) 0.1/1 3/39 14/99.9 16/99.9
Settings: stereoisomer not certain
For `Nc1ccc(N=Nc2ccccc2)c(N)n1`, the LC retention time was 8.49 min. With `CN1CCCC(CC2c3ccccc3Sc3ccccc32)C1` (stereo not given) the LC retention time was 8.51 min. For `CC(COc1ccccc1)NC(C)C(O)c1ccc(O)cc1` (stereo not given), the LC retention time was 5.28 min. In the case of `O=c1[nH]c2c(c(=O)n1C1CCCCC1)CCC2`, the LC retention time is reported as 8.27 min. `C=C(C)C1Cc2c(ccc3c2OC2COc4cc(OC)c(OC)cc4C2C3=O)O1` (stereo not given) gave an LC retention time of 10.5 min. With `CNCCC(Oc1cccc2ccccc12)c1cccs1` (stereo not given) the LC retention time was 8.11 min. Work on `CC(C)N1C(=O)N(c2ccccc2)CSC1=NC(C)(C)C` yielded an LC retention time of 12.2 min. `Cc1ncc([N+](=O)[O-])n1CCO` gave an LC retention time of 3.58 min. Compound `Cc1onc(-c2ccccc2)c1-c1ccc(S(N)(=O)=O)cc1` has an LC retention time of 7.37 min. With `COP(=S)(OC)Oc1ccc([N+](=O)[O-])cc1` the LC retention time was 9.24 min. Work on `CCCc1nn(C)c2c(=O)[nH]c(-c3cc(S(=O)(=O)N4CCN(C)CC4)ccc3OCC)nc12` yielded an LC retention time of 7.88 min. In the case of `CC(C)NCC(O)COc1cccc2[nH]c3ccccc3c12` (stereo not given), the LC retention time is reported as 5.49 min. Compound `Cc1nnc(-c2ccccc2)c(=O)n1N` has an LC retention time of 5.24 min. Compound `CC=C1N(C)C(C)CC1(c1ccccc1)c1ccccc1` (stereo not given) has an LC retention time of 6.38 min. For `CC(NC(=O)C(N)CC(=O)O)C(=O)NC1C(C)(C)SC1(C)C` (stereo not given), the LC retention time was 6.09 min. `C=CCOc1ccccc1OCC(O)CNC(C)C` (stereo not given) gave an LC retention time of 5.66 min. Compound `Cc1c(C(C)C)c(=O)n(-c2ccccc2)n1C` has an LC retention time of 7.23 min. `CC(COc1ccc(Oc2ccccc2)cc1)Oc1ccccn1` (stereo not given) showed an LC retention time of 12.6 min. Work on `COc1ccc2c3c1OC1C(O)C=CC4C(C2)N(C)CCC341` (stereo not given) yielded an LC retention time of 3.4 min. For `O=C1OCC(O)=C1Cc1ccccc1`, the LC retention time was 5.06 min. In the case of `CCCCCCC(C)(C)c1cc(O)c2c(c1)OC(C)(C)C1CC=C(CO)CC21` (stereo not given), the LC retention time is reported as 13.5 min. In the case of `CCOP(=S)(OCC)OP(=S)(OCC)OCC`, the LC retention time is reported as 10.8 min. `CCN(CC)C(=O)NC1C=C2c3cccc4[nH]cc(c34)CC2N(C)C1` (stereo not given) gave an LC retention time of 5.92 min. Work on `CC(C)N(CCc1c[nH]c2cccc(O)c12)C(C)C` yielded an LC retention time of 4.34 min. In the case of `CCNC(=O)NC(=O)C(C#N)=NOC`, the LC retention time is reported as 5.6 min. In the case of `CCOc1ccc(NC(=O)CC(C)O)cc1` (stereo not given), the LC retention time is reported as 6.27 min. `CC12CCC3=C4CCC(=O)C=C4CCC3C1CCC2(O)CC#N` (stereo not given) showed an LC retention time of 8.09 min. With `COc1ccc2c(c1O)-c1c3c(cc4c1C(C2)N(C)CC4)OCO3` (stereo not given) the LC retention time was 4.36 min. `CCC(c1cccc(O)c1)C(C)CN(C)C` (stereo not given) gave an LC retention time of 5.01 min. With `Cn1c([N+](=O)[O-])cnc1COC(N)=O` the LC retention time was 3.55 min. Work on `CCC(c1ccccc1)c1c(O)c2ccccc2oc1=O` (stereo not given) yielded an LC retention time of 9.05 min. In the case of `CN1CCN(C)C1=O`, the LC retention time is reported as 3.53 min. For `COP(N)(=S)Oc1ccccc1C(=O)OC(C)C` (stereo not given), the LC retention time was 8.32 min. Work on `CN(C)CC(c1ccc(O)cc1)C1(O)CCCCC1` (stereo not given) yielded an LC retention time of 4.76 min. For `C#CC1(OC(C)=O)CCC2C3CCC4=CC(=O)CCC4C3CCC21C` (stereo not given), the LC retention time was 10.8 min. With `N#CC1CCCN1C(=O)CNC12CC3CC(CC(O)(C3)C1)C2` (stereo not given) the LC retention time was 3.26 min. With `CCN(CC)CCNC(=O)c1cc(S(C)(=O)=O)ccc1OC` the LC retention time was 3.41 min. `CNCCC=C1c2ccccc2COc2ccccc21` showed an LC retention time of 7.03 min. Work on `CC(C)Cc1ccc(C(C)C(=O)O)cc1` (stereo not given) yielded an LC retention time of 10.7 min. In the case of `CCc1ccc(CCOc2ccc(CC3SC(=O)NC3=O)cc2)nc1` (stereo not given), the LC retention time is reported as 9.09 min. With `Cn1nc2ccccc2n1` the LC retention time was 5.11 min. Work on `COC(=O)c1ccccc1S(=O)(=O)NC(=O)Nc1nc(C)cc(C)n1` yielded an LC retention time of 6.92 min. In the case of `CNC(=O)CSP(=O)(OC)OC`, the LC retention time is reported as 3.35 min. Work on `CCc1cc2c(cc1CC)CC(NCC(O)c1ccc(O)c3[nH]c(=O)ccc13)C2` (stereo not given) yielded an LC retention time of 7.9 min. In the case of `COP(=S)(OC)Oc1ccc(S(C)=O)c(C)c1` (stereo not given), the LC retention time is reported as 7.28 min. In the case of `CCN1CCN(C(=O)NC(C(=O)NC2C(=O)N3C(C(=O)O)=C(CSc4nnnn4C)CSC23)c2ccc(O)cc2)C(=O)C1=O` (stereo not given), the LC retention time is reported as 4.36 min. Compound `CN(C)C(=O)Oc1cc(OC(=O)N(C)C)cc(C(O)CNC(C)(C)C)c1` (stereo not given) has an LC retention time of 5.16 min. `CCc1cccc(C)c1N1C(=O)COCC1C` (stereo not given) gave an LC retention time of 7.89 min. For `CCN(CC)CC(C)(C)COC(=O)c1ccc(N)cc1`, the LC retention time was 4.24 min. For `Cc1nnc2n1-c1ccc([N+](=O)[O-])cc1C(c1ccccc1)=NC2`, the LC retention time was 6.91 min. `CC(C)C1(C)N=C(c2nc3ccccc3cc2C(=O)O)NC1=O` (stereo not given) gave an LC retention time of 6.1 min. Work on `Cc1ncc(CO)c(CO)c1O` yielded an LC retention time of 2.18 min. With `COc1ccc2c(c1OC)C(=O)OC2C1c2c(cc3c(c2OC)OCO3)CCN1C` (stereo not given) the LC retention time was 6.96 min. Work on `CC12C=CC(=O)C=C1CCC1C2CCC2(C)C(O)CCC12` (stereo not given) yielded an LC retention time of 9.03 min. `CCC(CC)COC(C(=O)OCCN(C)C)(c1ccccc1)c1ccccc1` gave an LC retention time of 11.6 min. `Oc1ccc2ccccc2c1N=Nc1ccccc1` gave an LC retention time of 13.6 min. Compound `Nc1ccn(C2OC(CO)C(O)C2O)c(=O)n1` (stereo not given) has an LC retention time of 1.39 min. Work on `Cc1ccc(C2(c3ccccc3)NC(=O)NC2=O)cc1` (stereo not given) yielded an LC retention time of 8.12 min. Compound `CCNc1nc(NC(C)(C)C)nc(OC)n1` has an LC retention time of 9.16 min. Compound `C#CC1(O)CCC2C3CCC4=CC(=O)CCC4C3CCC21C` (stereo not given) has an LC retention time of 9.15 min. Work on `CCCCC(=O)N(Cc1ccc(-c2ccccc2-c2nn[nH]n2)cc1)C(C(=O)O)C(C)C` (stereo not given) yielded an LC retention time of 9.21 min. `CCN1CC2(COC)C(O)CC(OC)C34C5CC6(O)C(OC)C(O)C(OC(C)=O)(C5C6OC(=O)c5ccccc5)C(C(OC)C23)C14` (stereo not given) showed an LC retention time of 7.09 min. Compound `NC(N)=NCC1COc2ccccc2O1` (stereo not given) has an LC retention time of 4.57 min. With `CC(C)(C(=O)O)c1ccc(C(O)CCCN2CCC(C(O)(c3ccccc3)c3ccccc3)CC2)cc1` (stereo not given) the LC retention time was 7.68 min. Compound `Cc1ncc([N+](=O)[O-])n1CCCO` has an LC retention time of 4.21 min. With `CCS(=O)(=O)c1cccnc1S(=O)(=O)NC(=O)Nc1nc(OC)cc(OC)n1` the LC retention time was 7.09 min. Work on `COc1ccc(Cc2cnc(N)nc2N)cc1OC` yielded an LC retention time of 3.88 min. Compound `Cc1oc(C)c(C(=O)Nc2ccccc2)c1C` has an LC retention time of 8.79 min. Work on `CN1CCc2cccc3c2C1Cc1ccc(O)c(O)c1-3` (stereo not given) yielded an LC retention time of 4.28 min. `CSc1nc(NC(C)C)nc(NC(C)C)n1` gave an LC retention time of 10.1 min. With `CCCCOC(=O)N(C)SN(C)C(=O)Oc1cccc2c1OC(C)(C)C2` the LC retention time was 12.1 min. For `CCC(N)Cc1ccc2c(c1)OCO2` (stereo not given), the LC retention time was 4.73 min. With `CC(C(=O)c1ccc2c(c1)OCO2)N1CCCC1` (stereo not given) the LC retention time was 4.13 min. In the case of `CC1C2Cc3ccc(O)cc3C1(C)CCN2CCc1ccccc1` (stereo not given), the LC retention time is reported as 6.08 min. Compound `CN(C)CCC=C1c2ccccc2COc2ccc(CC(=O)O)cc21` has an LC retention time of 6.89 min. `CCOC(=O)c1cn2nc(OP(=S)(OCC)OCC)cc2nc1C` showed an LC retention time of 11.4 min. Compound `Cn1c(=O)c2c(ncn2C)n(C)c1=O` has an LC retention time of 4.23 min. In the case of `CCCCn1cc(C(=O)c2c(C)ccc3ccccc23)c2ccccc21`, the LC retention time is reported as 12.3 min. With `COCCc1ccc(OCC(O)CNC(C)C)cc1` (stereo not given) the LC retention time was 4.93 min. `CCOC(=O)Nc1cccc(OC(=O)Nc2ccccc2)c1` gave an LC retention time of 8.57 min. `CCN(CC)CCOC(=O)C(O)(c1ccccc1)c1ccccc1` gave an LC retention time of 6.08 min. With `Cc1nnc(SCC2=C(C(=O)O)N3C(=O)C(NC(=O)Cn4cnnn4)C3SC2)s1` (stereo not given) the LC retention time was 4.16 min. `CN1C2CCC1CC(OC(=O)C(CO)c1ccccc1)C2` (stereo not given) gave an LC retention time of 4.36 min. For `COC(=O)C(C)N(C(=O)Cc1ccccc1)c1c(C)cccc1C` (stereo not given), the LC retention time was 10.9 min. Compound `COC(C)(C)CCCC(C)CC=CC(C)=CC(=O)OC(C)C` (stereo not given) has an LC retention time of 13.6 min. Work on `S=c1nc[nH]c2nc[nH]c12` yielded an LC retention time of 2.61 min. `CCN(CC)C(=O)C(C)Oc1cccc2ccccc12` (stereo not given) showed an LC retention time of 10.2 min. In the case of `CCOP(=S)(OCC)Oc1ccc(S(C)=O)cc1` (stereo not given), the LC retention time is reported as 8.27 min. `CC(C)CC(C)Nc1ccc(Nc2ccccc2)cc1` (stereo not given) showed an LC retention time of 9.92 min. `CC12CCC3C(CC=C4CC(O)CCC43C)C1CCC2=O` (stereo not given) showed an LC retention time of 10.2 min. Work on `Cc1c(N(C)C)c(=O)n(-c2ccccc2)n1C` yielded an LC retention time of 5.21 min. For `CNCC1CCCCC1(O)c1cccc(OC)c1` (stereo not given), the LC retention time was 5.3 min. Compound `c1ccc(CC2=NCCN2)cc1` has an LC retention time of 3.28 min. For `CCNCC(=O)Nc1c(C)cccc1C`, the LC retention time was 4.33 min. Compound `CCCCN(CCCC)CCCC` has an LC retention time of 5.28 min. With `CN1CCC(N(Cc2ccccc2)c2ccccc2)CC1` the LC retention time was 7.77 min. `CCCC1C(=O)N2C(N(C)C)=Nc3ccc(C)cc3N2C1=O` (stereo not given) gave an LC retention time of 6.54 min. `COc1cccc(C2(O)CCCCC2C[N+](C)(C)[O-])c1` (stereo not given) gave an LC retention time of 5.24 min. `CN1CCN(CCCN2c3ccccc3Sc3ccccc32)CC1` showed an LC retention time of 8.8 min. For `CC1=NNC(=O)N(N=Cc2cccnc2)C1`, the LC retention time was 4.01 min. For `CC(=O)OCCC(SC(C)=O)=C(C)N(C=O)Cc1cnc(C)nc1N`, the LC retention time was 4.46 min. Work on `CCC1CN2CCc3c([nH]c4cccc(OC)c34)C2CC1C(=COC)C(=O)OC` (stereo not given) yielded an LC retention time of 6.23 min. Compound `COc1cnc(NS(=O)(=O)c2ccc(N)cc2)nc1` has an LC retention time of 4.18 min. `CNCCCC12CCC(c3ccccc31)c1ccccc12` showed an LC retention time of 8.08 min. With `Cc1cc(C(C)(C)C)cc(C)c1CC1=NCCN1` the LC retention time was 7.75 min. Compound `CCOP(=S)(OCC)Oc1cc(C)nc(N(CC)CC)n1` has an LC retention time of 12.3 min. Work on `CC=C1CC(C)C(O)(CO)C(=O)OCC2=CC[N+]3([O-])CCC(OC1=O)C23` (stereo not given) yielded an LC retention time of 4.33 min. Compound `NC1CCc2cc3c(cc2C1)OCO3` (stereo not given) has an LC retention time of 4.32 min. In the case of `CCc1nnc(NS(=O)(=O)c2ccc(N)cc2)s1`, the LC retention time is reported as 4.81 min. Compound `c1cncc(C2CCCN2)c1` (stereo not given) has an LC retention time of 3.14 min. `CCC1(c2ccccc2)C(=O)NCNC1=O` gave an LC retention time of 5.29 min. `Cc1cc(C)cc(OCC2CNC(=O)O2)c1` (stereo not given) showed an LC retention time of 7.86 min. `CCCCCn1cc(C(=O)Nc2cccc3ccccc23)c2ccccc21` showed an LC retention time of 11.7 min. In the case of `CSC(=O)c1cccc2nnsc12`, the LC retention time is reported as 9.65 min. With `CCCC(C(=O)c1ccc2c(c1)OCO2)N1CCCC1` (stereo not given) the LC retention time was 5.18 min.
